Experiment: gradient 5% acetonitrile 3 min, to 50% in 2 min, to 85% in 15 min, held 3 min, 100 µL/min
Settings: column: Zorbax Extend-C18 2.1 x 50 mm; eluents: water / acetonitrile, 0.1% formic acid
Procedure, shortened: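 Each retention time is based on an adduct peak selected computationally and verified by manual inspection. Measurements used HPLC–quadrupole time-of-flight mass spectrometry in positive and negative ionization mode on mixtures of ~100 pure standards. Chromatography ran on a Zorbax Extend-C18 column (2.1 × 50 mm, 1.8 μm) at 100 μL/min with water and acetonitrile, each containing 0.1% formic acid, and dead and dwell volumes of 40 μL and 900 μL.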

Structure (SMILES)	RP-LC retention time [s]
O=C(Nc1c(F)cccc1F)N1CCc2[nH]cnc2C1c1ccccc1 (stereo unspecified)	608
CC1CS(=O)(=O)N(c2ccc(C(=O)N3CCN(c4ccccn4)CC3)c(Cl)c2)C1=O (stereo unspecified)	576
O=C(CN1CCc2ccccc2C1C(=O)N1CCCCC1)NCc1ccccn1 (stereo unspecified)	755
O=C(Cn1cccc1-c1nc(-c2ccc(Cl)cc2)cs1)NCCCN1CCOCC1	612
CC(=O)N1CCCC1c1nc(C2CN(S(=O)(=O)c3cccs3)C2)no1 (stereo unspecified)	703
Cc1cc(C(=O)N2CC(n3cc(COc4ccc(F)cc4)nn3)C2)n(C)n1	637
O=c1ccc(-c2ccc(F)cc2)nn1CCc1nc(-c2ccncc2)no1	758
CN1CCCN(C(=O)CCc2ccc3c(ccn3C)c2)CC1	605
CCc1cccc(C)c1NC(=O)C1CCCN(c2nnc(C)c3c(C)n(-c4ccccc4)nc23)C1 (stereo unspecified)	775
COc1ccc(CNC(=O)c2c(C)sc3ccn(CC(C)C)c(=O)c23)cc1OC	865
CN(C(=O)Cn1nc(Cc2ccncc2)c2ccccc2c1=O)c1ccc(Br)cc1	655
O=c1c2sccc2n(Cc2nc(-c3ccccc3Cl)no2)c(=O)n1Cc1ccc(F)cc1	1110
COc1ncccc1CNS(=O)(=O)c1ccccc1	757
CC1=CN2C(c3cccc([N+](=O)[O-])c3)=NON(c3ccc(C)cn3)C2C=C1 (stereo unspecified)	1190
COc1ccc(NC(=O)c2c(O)c3cccnc3n(-c3cccc(F)c3)c2=O)cc1F	1210
COc1ccc(OC)c(NC(=O)Cn2c(=O)n(-c3ccccc3)c3ncccc32)c1	841
CCCCn1cc(S(=O)(=O)Nc2cccc(OC)c2)c2cccnc21	912
Cc1nn(CC(=O)NCC2CCCO2)c(=O)c2nc(-c3ccccc3)sc12 (stereo unspecified)	709
Cc1noc(CNC(=O)c2cc(C)on2)n1	592
CCc1ccc(C2=C(C)C(N3CCCN(C(=O)NC)CC3)=NS2(=O)=O)cc1	746
Cc1ccccc1CNC(=O)C1=C2CCCN2c2ccc(F)cc2S1(=O)=O	918
O=C(CN1CCN(Cc2ccccc2)C1=O)NCc1ccc(F)cc1Cl	833
COc1ccc(C(C)NC(=O)c2ccc3ncnc(N4CCCC4)c3c2)cc1 (stereo unspecified)	646
CCN1CCN(c2cc(C)c3cc(NC(=S)NC4CCCC4)ccc3n2)CC1	572
COc1cc(CN2CCc3nc(N4CCCC4)ncc3C2)ccc1OC(C)C	641

The remaining lines, values ahead:

RP-LC retention time [s]	Structure (SMILES)
819	Cc1c(C(=O)N2CCN(C(=O)COc3ccccc3)CC2)[nH]c2ccccc12
606	Cc1cc(=O)n(CC(=O)NCc2ccccc2)c(N2CCCC2)n1
842	CN(C(=O)c1nc(N2CCSCC2)c2cnn(C)c2n1)c1cccc(Cl)c1
666	CCN(CC)CCNC(=O)c1c(-c2ccccc2)c(-c2ccccc2)nn(CC)c1=O
789	CCOc1ccc(NC(=O)c2oc3ccc(Cl)cc3c2C)c2cccnc12
894	COc1ccccc1-c1nc(C2CC(=O)N(c3ccccc3)C2)no1 (stereo unspecified)
1110	Cc1nc(-c2cc3ccccc3nc2N2CCN(c3ccc(F)cc3)CC2)no1
853	CCc1ccc(N2C=NS(=O)(=O)c3cccnc32)cc1
1360	Cc1oc(-c2cccc(Cl)c2)nc1Cn1c(=O)n(C(C)C)c(=O)c2ccccc21
673	CCc1nc2cc(N3CCCC(C(=O)NCc4ccco4)C3)cnc2nc1CC (stereo unspecified)
1020	O=c1c2ccccc2c(-c2nc(-c3ccncc3)no2)cn1-c1cccc(Cl)c1

Reference: the METLIN SMRT retention time set (Domingo-Almenara et al. 2019)
